The results in this text go back to PMC4746629, “Small-molecule inhibition of PTPRZ reduces tumor growth in a rat model of glioblastoma” (Scientific Reports, 2016).

Data set [1] is described as follows: Parallel artificial membrane permeability assay (PAMPA). It counts as in vitro ADME. Background: In PAMPA a lipid-coated filter parts donor from acceptor wells.
Data set [2] can be described thus: Stability of SCB4380 in C6 cells, time-lapse microscopy after microinjection. Format: cell-based, rat. As to conditions: rat; after direct microinjection, time-lapse microscopy; read-out: Average half-life for disappearance of the fluorescent signal in C6 cells.
The test system of a further data set is C6 cells. The data set is described as above. Format: cell-based, rat.
Data set [3] deals with T1, PTPRZ-ICR (Homo sapiens, UniProt P23471, DEL1723-1729). The experiment in a line: Isothermal titration calorimetry. A general note: In ITC the heat of successive injections is recorded.
T1 sequence (P23471 1698-2308 isoform P23471-2 limits assumed, stated change not applied): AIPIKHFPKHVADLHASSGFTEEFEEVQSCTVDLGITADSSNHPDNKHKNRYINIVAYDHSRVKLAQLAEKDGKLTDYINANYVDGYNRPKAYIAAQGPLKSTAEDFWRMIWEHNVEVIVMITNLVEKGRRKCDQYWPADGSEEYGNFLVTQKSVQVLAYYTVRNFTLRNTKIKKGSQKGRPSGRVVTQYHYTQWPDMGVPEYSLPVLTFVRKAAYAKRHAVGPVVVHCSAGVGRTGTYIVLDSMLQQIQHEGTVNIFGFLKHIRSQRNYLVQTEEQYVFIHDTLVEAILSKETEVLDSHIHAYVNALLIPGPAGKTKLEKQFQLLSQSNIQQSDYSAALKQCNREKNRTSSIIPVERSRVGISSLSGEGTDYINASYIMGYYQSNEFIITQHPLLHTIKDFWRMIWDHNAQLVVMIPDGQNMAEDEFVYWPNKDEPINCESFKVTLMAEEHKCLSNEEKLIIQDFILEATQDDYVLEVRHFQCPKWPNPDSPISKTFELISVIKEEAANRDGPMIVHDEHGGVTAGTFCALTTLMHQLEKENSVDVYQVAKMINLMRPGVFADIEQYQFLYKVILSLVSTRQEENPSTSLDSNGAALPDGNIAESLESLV
Experimental: Titration isotherm (with error bars). The isotherm was fit to a one-to-one binding model (solid line) using the program SEDPHAT (ref. [48]) with a 1:1 binding model (B). The single dissociation constant and enthalpy change are indicated in the inset. Residuals calculated by subtracting fit values from observed values (C).
The titration sequence included a single 0.4 μl injection followed by 19 injections of 2 μl each at an interval of 120 s between the injections.
The target of the next data set is PTPRZ (Homo sapiens, UniProt P23471, DEL1723-1729). The experiment in a line: PTP selectivity assay with DiFMUP substrate.
Sequence of PTPRZ (P23471 1698-2308 isoform P23471-2 limits assumed, stated change not applied): as above
For the next data set, the target named is human PTPRG (Homo sapiens, UniProt P23470). Kind of data set: PTP selectivity assay with DiFMUP substrate.
Sequence of human PTPRG (P23470 790-1445): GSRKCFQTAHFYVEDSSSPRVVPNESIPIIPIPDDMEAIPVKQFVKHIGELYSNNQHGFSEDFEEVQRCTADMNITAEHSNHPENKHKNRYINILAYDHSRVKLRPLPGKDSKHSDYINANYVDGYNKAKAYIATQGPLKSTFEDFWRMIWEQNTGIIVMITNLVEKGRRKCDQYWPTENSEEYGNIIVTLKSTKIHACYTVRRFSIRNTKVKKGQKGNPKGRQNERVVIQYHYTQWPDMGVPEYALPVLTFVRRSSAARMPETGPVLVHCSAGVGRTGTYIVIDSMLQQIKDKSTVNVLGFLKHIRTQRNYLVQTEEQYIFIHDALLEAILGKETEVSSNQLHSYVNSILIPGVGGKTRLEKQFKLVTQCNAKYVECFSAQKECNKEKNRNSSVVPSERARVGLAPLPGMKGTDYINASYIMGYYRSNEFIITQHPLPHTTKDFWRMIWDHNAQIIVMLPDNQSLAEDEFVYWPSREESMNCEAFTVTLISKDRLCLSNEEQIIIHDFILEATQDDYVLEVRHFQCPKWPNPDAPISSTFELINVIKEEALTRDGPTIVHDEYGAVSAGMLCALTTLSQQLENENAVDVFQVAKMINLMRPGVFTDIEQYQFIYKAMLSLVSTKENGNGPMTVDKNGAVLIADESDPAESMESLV
For the next data set, the target named is human PTPRA (Homo sapiens, UniProt P18433). The experiment in a line: PTP selectivity assay with DiFMUP substrate.
The target in the next data set is human PTPRM (Homo sapiens, UniProt P28827). Kind of data set: PTP selectivity assay with DiFMUP substrate.
Sequence of human PTPRM (P28827 765-1452): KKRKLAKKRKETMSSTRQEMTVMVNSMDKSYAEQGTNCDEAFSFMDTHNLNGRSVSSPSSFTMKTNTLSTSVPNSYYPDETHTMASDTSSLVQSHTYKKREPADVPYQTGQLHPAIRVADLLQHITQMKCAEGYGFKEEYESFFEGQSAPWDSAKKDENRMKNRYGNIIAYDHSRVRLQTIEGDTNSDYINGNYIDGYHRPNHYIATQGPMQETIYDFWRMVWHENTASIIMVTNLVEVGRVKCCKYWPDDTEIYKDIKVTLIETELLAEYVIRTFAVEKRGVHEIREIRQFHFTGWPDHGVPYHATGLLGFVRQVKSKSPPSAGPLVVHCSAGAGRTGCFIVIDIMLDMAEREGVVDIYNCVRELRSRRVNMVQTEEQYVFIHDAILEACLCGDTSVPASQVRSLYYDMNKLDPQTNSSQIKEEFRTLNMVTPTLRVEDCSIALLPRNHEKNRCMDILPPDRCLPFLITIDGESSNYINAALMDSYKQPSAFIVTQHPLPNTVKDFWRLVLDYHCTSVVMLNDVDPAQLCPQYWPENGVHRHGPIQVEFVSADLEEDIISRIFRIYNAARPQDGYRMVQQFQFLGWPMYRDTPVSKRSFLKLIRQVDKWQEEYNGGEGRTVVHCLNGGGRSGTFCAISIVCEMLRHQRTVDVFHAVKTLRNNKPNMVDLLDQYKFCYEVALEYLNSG
The target of a further data set is T2, human PTPRS (Homo sapiens, UniProt Q13332).
T2 sequence (Q13332 1304-1948): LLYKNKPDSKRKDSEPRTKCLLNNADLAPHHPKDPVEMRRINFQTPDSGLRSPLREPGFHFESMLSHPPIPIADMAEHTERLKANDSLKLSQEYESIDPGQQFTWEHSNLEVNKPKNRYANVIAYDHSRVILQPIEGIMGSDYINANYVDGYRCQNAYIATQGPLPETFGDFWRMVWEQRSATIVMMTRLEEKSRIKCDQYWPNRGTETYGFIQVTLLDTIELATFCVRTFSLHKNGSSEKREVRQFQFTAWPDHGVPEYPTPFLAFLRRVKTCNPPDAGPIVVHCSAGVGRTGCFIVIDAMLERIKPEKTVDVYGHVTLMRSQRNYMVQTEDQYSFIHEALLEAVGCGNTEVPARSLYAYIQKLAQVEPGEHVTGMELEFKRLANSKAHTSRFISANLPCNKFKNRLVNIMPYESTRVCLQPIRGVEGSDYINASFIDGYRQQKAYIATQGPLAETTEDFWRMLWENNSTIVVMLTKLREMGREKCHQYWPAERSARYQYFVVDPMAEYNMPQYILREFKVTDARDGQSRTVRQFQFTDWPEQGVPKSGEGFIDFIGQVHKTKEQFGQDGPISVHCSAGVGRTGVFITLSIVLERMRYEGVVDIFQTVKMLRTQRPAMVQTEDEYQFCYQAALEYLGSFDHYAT
The experiment in a line: PTP selectivity assay with DiFMUP substrate.

The next data set has as its target mouse PTPRB (Mus musculus, UniProt B2RU80). The experiment in a line: PTP selectivity assay with DiFMUP substrate.
The next data set deals with T3, human PTPN6 (Homo sapiens, UniProt P29350).
T3 sequence (P29350 220-523): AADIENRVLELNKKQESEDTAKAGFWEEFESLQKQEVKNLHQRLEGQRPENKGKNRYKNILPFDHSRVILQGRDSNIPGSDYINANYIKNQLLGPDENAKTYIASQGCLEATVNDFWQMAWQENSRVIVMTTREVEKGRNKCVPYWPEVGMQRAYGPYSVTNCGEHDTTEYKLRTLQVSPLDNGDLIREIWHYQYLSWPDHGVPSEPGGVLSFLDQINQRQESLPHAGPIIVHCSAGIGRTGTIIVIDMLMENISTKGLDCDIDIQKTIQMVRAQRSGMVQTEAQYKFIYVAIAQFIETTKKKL
The experiment in a line: PTP selectivity assay with DiFMUP substrate.

The target in another data set is T4, human PTPN1 (Homo sapiens, UniProt P18031).
T4 sequence (P18031 1-321): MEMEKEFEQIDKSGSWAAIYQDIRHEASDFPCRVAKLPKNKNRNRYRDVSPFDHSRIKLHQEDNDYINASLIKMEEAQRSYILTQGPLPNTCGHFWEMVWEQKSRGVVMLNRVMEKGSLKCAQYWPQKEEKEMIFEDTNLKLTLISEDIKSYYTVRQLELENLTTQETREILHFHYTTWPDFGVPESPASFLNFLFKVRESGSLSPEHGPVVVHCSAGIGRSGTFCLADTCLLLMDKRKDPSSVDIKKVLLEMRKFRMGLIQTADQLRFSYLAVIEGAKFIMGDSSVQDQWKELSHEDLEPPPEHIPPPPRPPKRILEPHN
The experiment in a line: PTP selectivity assay with DiFMUP substrate.

The next data set deals with PTPRZ-ICR N1758D mutant (Homo sapiens, UniProt P23471, DEL1723-1729/N1758D). The experiment in a line: Inhibitor sensitivity of site-directed mutant, pCAP assay. As to conditions: compounds 10 μM, 20 μM pCAP-GIT1_549–556.
Sequence of PTPRZ-ICR N1758D mutant (P23471 1698-2308 isoform P23471-2 N1751D limits assumed): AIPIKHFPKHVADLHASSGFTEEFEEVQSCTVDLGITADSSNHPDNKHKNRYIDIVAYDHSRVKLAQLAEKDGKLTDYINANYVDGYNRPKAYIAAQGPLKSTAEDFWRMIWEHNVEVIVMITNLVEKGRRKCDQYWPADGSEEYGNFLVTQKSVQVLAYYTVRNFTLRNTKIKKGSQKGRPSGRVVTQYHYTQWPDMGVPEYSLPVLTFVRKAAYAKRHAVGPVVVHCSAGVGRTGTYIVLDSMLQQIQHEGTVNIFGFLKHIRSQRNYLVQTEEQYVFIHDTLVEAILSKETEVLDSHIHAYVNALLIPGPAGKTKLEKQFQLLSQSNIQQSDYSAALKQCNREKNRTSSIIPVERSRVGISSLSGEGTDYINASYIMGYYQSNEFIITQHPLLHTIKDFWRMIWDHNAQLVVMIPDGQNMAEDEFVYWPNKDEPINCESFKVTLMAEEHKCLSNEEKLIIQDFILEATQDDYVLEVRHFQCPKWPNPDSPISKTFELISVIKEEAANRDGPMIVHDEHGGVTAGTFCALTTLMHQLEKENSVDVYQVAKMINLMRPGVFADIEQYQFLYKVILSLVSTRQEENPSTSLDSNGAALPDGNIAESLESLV
The target of another data set is PTPRZ-ICR Y1756F mutant (Homo sapiens, UniProt P23471, DEL1723-1729/Y1756F). Described as above. Conditions: compounds 10 μM or vanadate 200 μM, 20 μM pCAP-GIT1_549–556.
Sequence of PTPRZ-ICR Y1756F mutant (P23471 1698-2308 isoform P23471-2 Y1749F limits assumed): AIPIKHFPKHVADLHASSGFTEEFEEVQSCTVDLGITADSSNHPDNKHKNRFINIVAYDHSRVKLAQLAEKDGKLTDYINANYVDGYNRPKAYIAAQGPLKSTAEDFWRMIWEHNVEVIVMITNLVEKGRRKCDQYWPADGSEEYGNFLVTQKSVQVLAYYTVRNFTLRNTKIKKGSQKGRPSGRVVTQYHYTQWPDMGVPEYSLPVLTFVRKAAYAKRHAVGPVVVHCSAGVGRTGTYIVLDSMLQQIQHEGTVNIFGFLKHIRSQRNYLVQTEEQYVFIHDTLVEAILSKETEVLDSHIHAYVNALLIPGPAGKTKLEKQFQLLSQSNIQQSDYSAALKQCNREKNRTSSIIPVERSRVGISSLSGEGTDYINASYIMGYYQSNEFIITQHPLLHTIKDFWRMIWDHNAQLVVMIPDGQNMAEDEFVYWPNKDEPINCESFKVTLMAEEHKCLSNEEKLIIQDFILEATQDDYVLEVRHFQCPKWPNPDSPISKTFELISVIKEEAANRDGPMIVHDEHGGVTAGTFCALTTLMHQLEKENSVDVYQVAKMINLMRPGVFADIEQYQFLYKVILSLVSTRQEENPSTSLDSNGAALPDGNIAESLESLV
In data set [4] the target is T1, PTPRZ-ICR. Kind of data set: Mass spectrometry under non-denaturing conditions (native MS) binding.
Experimental: PTPRZ-ICR was mixed with the indicated compounds, and their binding to PTPRZ-ICR was monitored by MS under non-denaturing conditions. […] The concentrations of PTPRZ-ICR proteins used for the assay were estimated to be approximately 0.2 to 0.3 μM by SDS-PAGE followed by CBB staining.
Ten microliter aliquots were mixed with equal volumes of each compound solution, and the samples were immediately analyzed by nanoflow electrospray using in-house made gold-coated glass capillaries (~2 μl sample was loaded for each analysis). […] Spectra were calibrated using 1 mg/ml cesium iodide, and analyzed by Mass Lynx software (Waters).
The target in data set [5] is T1, PTPRZ-ICR. Kind of data set: Hydrolysis of pCAP-GIT1_549–556 by human PTPRZ-ICR, IC50 and kinetic analysis.
Experimental: (§1) Human PTPRZ-ICR (0.1 nM) was added to the substrate solution (closed arrowheads), and was followed by the addition of test compounds at the indicated concentrations (open arrowheads). The slope of the fluorescence signal during the 40 s before and after the addition of a compound was measured, and the inhibitory effects of each compound were determined by the ratio of the two. […] The inhibition assay was performed with 20 μM DiFMUP, a non-specific PTP substrate.
(§2) min with 1 M Tris HCl, pH 9.2 (20 µl). The final concentrations of compounds, the
(§3) pCAP substrate, and DMSO were 10 µg/ml, 20 µM, and 1% (v/v), respectively.
(§4) Fluorescence was measured at excitation/emission wavelengths of 380/460 nm
(§5) using an EnVision Multilabel Reader (PerkinElmer). A decrease of more than
(§6) 40% in the signal intensity against the DMSO control was considered to be a
(§7) potential hit, and reproducibility was examined with a freshly prepared stock.
(§8) three-component buffer at pH 7.0 using a 384-well plate. The reaction was […]
(§9) calculated by nonlinear regression (JMP software, SAS Institute). […]
(§10) type was analyzed by a Lineweaver-Burk plot according to Michaelis-Menten […]
(§11) was continuously monitored for ~100 s as an increase in fluorescence at 455 nm […]
(§12) measured the slope of the linear increase of the fluorescence signal as an indicator
(§13) of catalytic activity. IC50 values were determined as above.
The next data set relates to C6 glioblastoma cells. Kind of data set: Cell proliferation assay. Conditions: parent C6 cells, liposome delivery. It counts as cell-based, rat.
Data set [6] concerns the target T1, PTPRZ-ICR. The experiment in a line: In vitro dephosphorylation assay, single concentration of SCB4380 analogues. Format: biochemical. More on the design: PTPRZ (ICR, amino acid residues 1698-2315); FLAG (followed by HRV 3C site) (N, cleaved yes); made in house; host or cells: silkworm (Bombyx mori) pupae, BmNPV baculovirus. As to conditions: compound 10 μM, substrate 20 μM, human PTPRZ-ICR 0.1 nM. The source says:
No significant effects were detected with compounds 7 to 10. TEXT PRINTED IN THE PICTURE: (B) 7: (no inhibition) | (B) 8: (no inhibition) | (B) 9: (no inhibition) | (B) 10: (no inhibition)

Entries after “also recorded” stand apart in the source; their conditions may differ.

Sequence of mouse PTPRB (B2RU80 1644-1997 limits assumed): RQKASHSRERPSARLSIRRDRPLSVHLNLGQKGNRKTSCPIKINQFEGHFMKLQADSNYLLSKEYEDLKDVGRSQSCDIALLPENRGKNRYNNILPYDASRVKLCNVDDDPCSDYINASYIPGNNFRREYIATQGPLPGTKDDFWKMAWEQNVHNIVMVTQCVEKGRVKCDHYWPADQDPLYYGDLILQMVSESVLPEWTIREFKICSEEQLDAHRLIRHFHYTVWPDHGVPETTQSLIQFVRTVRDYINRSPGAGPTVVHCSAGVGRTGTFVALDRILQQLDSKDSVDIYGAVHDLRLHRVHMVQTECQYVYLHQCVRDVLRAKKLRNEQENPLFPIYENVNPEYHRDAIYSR
Experimental for PTPRZ-ICR N1758D mutant: (G) Inhibitor sensitivity.
(§14) Two hundred microliters of pCAP-peptide substrates (20 μM) in a three-component buffer of pH 7.0 (100 mM acetate, 50 mM Tris, and 50 mM Bis-Tris) containing 5 mM DTT and 0.01% (v/v) Brij-35 were preincubated in a cuvette at room temperature. The reaction was initiated by adding 2 μl of an enzyme solution, and incubated for ~100 s; the amount of the enzyme was adjusted to give a convenient rate. Compounds were then added to the same cuvette at a 1/100 volume. In each experiment, the hydrolysis of the pCAP residue was continuously monitored as an increase in fluorescence at 460 nm (excitation at 334 nm) using a spectrofluorometer (FI-4500, Hitachi). We measured the slope of the linear increase of the fluorescence signal as an indicator of catalytic activity, which was obtained during the 40 s before and after the addition of a compound. The inhibitory effects of each compound were determined by the ratio of the activities, and indicated as the relative value to that of DMSO control.
(§15) respective full-length clones, and the cDNA fragments were fused in frame to the
(§16) coding sequence of glutathione S-transferase (GST) of the Escherichia coli (E. coli)
(§17) expression vector, pGEX-6P (GE Healthcare).
(§18) point mutants, pGEX-6P-PTPRZ-ICR was used as a template with a Quikchange
(§19) multisite-directed mutagenesis kit (Stratagene).
Experimental for PTPRZ-ICR Y1756F mutant: (G) Inhibitor sensitivity.
as §14, §15, §16, §17, §18, §19
Experimental for human PTPN1: as §1, §3, §4
(§20) using an EnVision Multilabel Reader (PerkinElmer).
(§21) calculated by nonlinear regression (JMP software, SAS Institute).
(§22) type was analyzed by a Lineweaver-Burk plot according to Michaelis-Menten
(§23) BSA, 5 mM DTT and 0.01% Brij-35) with DiFMUP
(§24) (6,8-difluoro-4-methylumbiliferyl phosphate, Molecular probe) as a nonspecific PTP
(§25) substrate. One hundred microliters of 40 µM DiFMUP were preincubated in a
cuvette at room temperature.
(§26) In each experiment, the hydrolysis of DiFMUP
(§27) was continuously monitored for ~100 s as an increase in fluorescence at 455 nm
(§28) (excitation at 358 nm) using a spectrofluorometer (FI-4500, Hitachi). We
as §12, §13
Experimental for human PTPN6: as §1, §3, §4, §20, §21, §22, §23, §24, §25
cuvette at room temperature.
as §26, §27, §28, §12, §13
Experimental for human PTPRA: as §1, §2, §3, §4, §5, §6, §7, §8, §9, §10, §11, §12, §13
Experimental for human PTPRG: as §1, §2, §3, §4, §5, §6, §7, §8, §9, §10, §11, §12, §13
Experimental for human PTPRM: as §1, §2, §3, §4, §5, §6, §7, §8, §9, §10, §11, §12, §13
Experimental for human PTPRS: as §1, §3, §4, §20, §21, §22, §23, §24, §25
cuvette at room temperature.
as §26, §27, §28, §12, §13
Experimental for mouse PTPRB: as §1, §3, §4, §20, §21, §22, §23, §24, §25
cuvette at room temperature.
as §26, §27, §28, §12, §13

The term half-life denotes how long it takes for the measured level to halve. For orientation: Kd means the free concentration of one partner at which half of the binding sites on the other are occupied at equilibrium, for simple one-to-one binding. For orientation: IC50 means the concentration at which inhibition is half-maximal. Regarding `O=S(=O)([O-])c1ccc2c(N=Nc3ccc(S(=O)(=O)[O-])c4ccccc34)c(O)c(S(=O)(=O)[O-])cc2c1.[Na+].[Na+].[Na+]` [SCB4380, trisodium 3-hydroxy-4-[(4-sulfonato-1-naphthyl)diazenyl]-2,7-naphthalenedisulfonate], the Membrane permeability entry in [1] was “deficient and low”. Further, the half-life in data set [2] was about 50 min. Moreover, the “Stability in living cells” value in the data set with C6 cells is “substantial instability”. Further, the Kd at PTPRZ-ICR [3] is 1.23 µM. Besides, the “ΔH (enthalpy change, ITC)” value at PTPRZ-ICR [3] (298.15 K, pH 7.5) is -14 kcal/mol. The IC50 against PTPRZ came to 0.4 µM; at human PTPRG, 0.4 µM; against human PTPRA it was 75.7 µM; on human PTPRM, 60.7 µM; on human PTPRS, 14.8 µM; on mouse PTPRB, 73.8 µM. Also, the IC50 was 24.6 µM against human PTPN6, 19.5 µM at human PTPN1 and 0.4 µM on PTPRZ-ICR [5]. In addition, at PTPRZ-ICR N1758D mutant, the “Inhibitor sensitivity of N1758D mutant versus wild-type enzyme” value is given as “resistant to inhibition”. For the same molecule, the “Inhibitor sensitivity of Y1756F mutant versus wild-type enzyme” value on PTPRZ-ICR Y1756F mutant is “impaired the inhibition by SCB4380 markedly”. Also, on PTPRZ-ICR [4], the “Binding to PTPRZ-ICR by native MS” value is listed as “bound to Z-ICR in a one-to-one stoichiometry”. Further, the “Inhibition type by Lineweaver-Burk plot analysis” value at PTPRZ-ICR [5] (human PTPRZ-ICR, pCAP-peptide substrate) is “competitive”.
As to `O=S(=O)([O-])c1cc(S(=O)(=O)[O-])c2c(N=Nc3ccc(S(=O)(=O)[O-])c4ccccc34)c(O)ccc2c1.[Na+].[Na+].[Na+]` [compound 2, trisodium 7-hydroxy-8-[(4-sulfonato-1-naphthyl)diazenyl]-1,3-naphthalenedisulfonate], in the data set on C6 glioblastoma cells, the “Proliferation of C6 glioblastoma cells (increase in cell number in 24 h)” value is listed as “did not show suppressive effects”. Moreover, the “Binding to PTPRZ-ICR by native MS” value on PTPRZ-ICR [4] is reported as “no binding activity”. On PTPRZ-ICR [6], the “Inhibitory effect on hydrolysis of pCAP-GIT1_549–556 (residual enzymatic activity relative to DMSO control)” value was “almost no inhibition”.
On to `O=S(=O)([O-])c1ccc2c(N=Nc3ccc(S(=O)(=O)[O-])c4ccccc34)c(O)ccc2c1.[Na+].[Na+]` [compound 3, disodium 6-hydroxy-5-[(4-sulfonato-1-naphthyl)diazenyl]-2-naphthalene sulfonate], for which the “Inhibitor sensitivity of N1758D mutant versus wild-type enzyme” value on PTPRZ-ICR N1758D mutant was “no changes in sensitivity”. Besides, the “Binding to PTPRZ-ICR by native MS” value on PTPRZ-ICR [4] is reported as “no binding activity”.
For `O=S(=O)([O-])c1ccc(N=Nc2c(O)ccc3ccccc23)c2ccccc12.[Na+]` [compound 4, sodium 4-(2-hydroxy-1-naphthalenylazo)-1-naphthalenesulfonate], the “Inhibitor sensitivity of N1758D mutant versus wild-type enzyme” value on PTPRZ-ICR N1758D mutant was “no changes in sensitivity”.
On to `O=S(=O)([O-])c1ccc2c(N=Nc3cccc4ccccc34)c(O)c(S(=O)(=O)[O-])cc2c1.[Na+].[Na+]` [compound 5, disodium 3-hydroxy-4-(1-naphthyldiazenyl)-2,7-naphthalenedisulfonate], for which the “Inhibitor sensitivity of N1758D mutant versus wild-type enzyme” value at PTPRZ-ICR N1758D mutant was “resistant to inhibition”. The “Inhibitory effect on hydrolysis of pCAP-GIT1_549–556 (residual enzymatic activity relative to DMSO control)” value at PTPRZ-ICR [6] was “markedly abolished inhibitory activity”; at PTPRZ-ICR [6] (listed as Compound 5) it was “weakly inhibited”.
As to `O=[N+]([O-])c1ccc(N=Nc2c(O)c(S(=O)(=O)[O-])cc3cc(S(=O)(=O)[O-])ccc23)cc1.[Na+].[Na+]` [compound 6, sodium 3-hydroxy-4-[(4-nitrophenyl)diazenyl]-2,7-naphthalenedisulfonate], the “Inhibitory effect on hydrolysis of pCAP-GIT1_549–556 (residual enzymatic activity relative to DMSO control)” value at PTPRZ-ICR [6] is on record as “markedly abolished inhibitory activity; also recorded: weakly inhibited”.
On to `O=Nc1c(O)c(S(=O)(=O)O)cc2cc(S(=O)(=O)O)ccc12` [compound 7, disodium 1-nitroso-2-naphthol-3,6-disulfonate monohydrate], for which, on PTPRZ-ICR [6], the “Inhibitory effect on hydrolysis of pCAP-GIT1_549–556 (residual enzymatic activity relative to DMSO control)” value is given as “no inhibition”.
Same read-out and setting: the same measure for `O=S(=O)([O-])c1ccc2cc(O)c(S(=O)(=O)[O-])cc2c1.[Na+].[Na+]` [compound 8, disodium 3-hydroxy-2,7-naphthalenedisulfonate]: “no inhibition”; for `Nc1ccc(S(=O)(=O)O)c2ccccc12` [compound 9, 4-amino-1-naphthalenesulfonic acid]: “no inhibition”; for `O=S(=O)(O)c1cccc2ccccc12` [compound 10, sodium 1-naphthalenesulfonate]: “no inhibition”.
Consider `[O]=[V]([O-])([O-])[O-]` [vanadate, reference compound], for which the “Inhibitor sensitivity of Y1756F mutant versus wild-type enzyme” value at PTPRZ-ICR Y1756F mutant is “not by vanadate”.
